Laboratory results taken from patent US8993595B2, “Macrocyclic serine protease inhibitors” (priority 2009, dated 2015).
Where two headings read alike, the source gives them in different places.

What was measured:
[1] = Cytotoxicity in parallel, colorimetric proliferation assay, 1b replicon cells; format: cell-based; settings: human, replicon cells (genotype 1b)
[2] = target: T1, human CYP450 3A4 (Homo sapiens, UniProt P08684); assay: CYP450 inhibition assay, 3A4; format: in vitro ADME
T1 construct: purchased BD Bioscience
Experimental: (§1) Compound 52 was incubated with human CYP450 cDNA-expressed isoenzymes according to the protocol (BD Bioscience). For CYP2C9, a luminogenic substrate was used with the P450-Glo™ kit. In addition, the effect of the compound on CYP2C9-mediated diclofenac metabolism was measured by LC-UV. The potential inhibitory effect of the compound on human UGT1A1 was examined using human liver microsomes and bilirubin as substrate. The metabolites (mono- and di-glucuronidated bilirubin) were measured by LC-UV.

[3] = target: T2, HCV NS3-4A Protease Genotype 4a (Hepatitis C virus genotype 4a, UniProt O39929); assay: HCV protease assay, recombinant NS3-4A genotype 4a; format: biochemical; settings: mean ± SD, 3 experiments
T2 construct: recombinant HCV NS3-4A proteases
Experimental: The compounds were tested at a variety of concentrations in assay buffer containing a final DMSO concentration of 5%. Reactions were allowed to proceed for 60 min at room temperature and fluorescence measurements were recorded with a Tecan Infinity Spectrofluorimeter. The IC50 values were determined from the percent inhibition versus concentration data using a sigmoidal non-linear regression analysis based on four parameters with Tecan Magellan software.
Compound 52 was tested against genotypes 1a, 1b, 2a, 3a, and 4a of recombinant HCV NS3-4A proteases, along with other cellular proteases.

[4] = 400 mg per day
[5] = tested on: 1b replicon; assay: HCV replicon luciferase assay, genotype 1b; format: cell-based
Experimental: Compound 52 was tested against genotypes 1a, 1b, and 2a in an HCV replicon assay as described in Example 2. Replicon cells (genotype 1a or 1b) were seeded onto 96-well plates, cultured for three days in the presence of the compound, and subject to a luciferase assay.
Drug solutions were made up freshly in Huh-7 media as 2× stocks. Ten additional 5-fold dilutions were prepared from these stocks in DMEM without G418. […] Cells were then incubated at 37° C./5% CO2. […] For this, media was removed from the plates via gentle tapping. Fifty microliters of ONE-glo luciferase assay reagent was added to each well. […] The EC50 values were calculated from dose response curves from the resulting best-fit equations determined by Microsoft Excel and XLfit 4.1 software.

[6] = target: T3, human CYP450 2C9 (Homo sapiens, UniProt P11712); assay: CYP450 inhibition assay, 2C9; format: in vitro ADME
T3 construct: purchased BD Bioscience
Experimental: as §1

[7] = tested on: Replicon cells (genotype 1b); assay: Long-term treatment assay in replicon cells; format: cell-based, HCV
Experimental: Compound 52 was tested in a long-term treatment assay. Replicon cells (genotype 1b) were treated with the compound, without G418, for 14 days, and the level of replicon RNA was measured at multiple time points. At the end of the 14-day treatment, cells were cultured in the absence of the compound, but with or without G418, in 10 cm dishes for 21 days. Surviving cell colonies were then stained with crystal violet and counted.

[8] = tested on: C-1a cell line (genotype 1a replicon selected with 25 nM, D168A); assay: Extent of resistance after selection, C-1a; format: cell-based, HCV; settings: selecting conc. 25 nM
Experimental: Replicon cells (genotype 1a or 1b) were treated with various concentrations of compound 52 in the presence of G418. Treatment-emergent genotypic changes were identified by population sequencing of NS3 (both protease and helicase regions). The activity of compound 52 and other compounds was evaluated by NS5A western blot after selection or luciferase assay during and after selection.

[9] = tested on: cardiovascular and respiratory systems of monkeys; format: in vivo, cynomolgus monkey; settings: oral doses up to 250 mg/kg
From the text: One in vitro GLP safety pharmacology study evaluated the effects of compound 52 on hERG channel currents in voltage-clamped human embryonic kidney cells (HEK293) stably expressing the human ether-à-go-go-related gene (hERG) channel. Four in vivo GLP safety pharmacology studies evaluated the potential effects of the compound on the cardiovascular and respiratory systems in the cynomolgus monkey and on the central nervous, renal, and gastrointestinal systems in the CD-1 mouse at single oral doses up to 250 mg/kg of compound 52.

[10] = MTS Cytotoxicity Assay in HPC cells; format: cell-based; settings: human; HPC cells (2a virus line)
Experimental: HPC cells were infected with JFH-1 (genotype 2a) and treated with the compound for 4 days (virus inoculum was removed after 16 hrs). Remaining virus was measured by an anti-HCV core ELISA. Compound cytotoxicity was also measured in parallel using a colorimetric proliferation assay as described in Example 5.
The cytotoxicity assay measures the viability of cells after treatment with a test compound for 5 days. The assay readout is the bioreduction of the yellow MTS tetrazolium compound to a purple formazan product. This conversion is mediated by NADPH or NADH and is directly proportional to the number of live cells in a culture.
Ninety-six-well Corning Costar plates were seeded with HPC cells at a density of 3.0×10^3 cells per well in 50 μL of Huh-7 media. Compound stock solutions were made up freshly in Huh-7 media as 2× stocks. Seven additional 3-fold drug dilutions were prepared from the 2× stocks in Huh-7 media for a total of 8 dilutions.
At least 4 hours after HPC cells were seeded, 50 μL of each drug dilution was added to the cultures. […]
After 5 days of treatment, the CellTiter 96® Aqueous One Solution cell proliferation assay was performed by adding 20 μL of MTS solution to each well. […] Plates were read at A490 nm in a Victor^3 V 1420 multilabel counter (Perkin Elmer) and CC50 concentrations were determined using Microsoft Excel and XLfit 4.1 software. […]

T1 sequence (P08684 whole entry): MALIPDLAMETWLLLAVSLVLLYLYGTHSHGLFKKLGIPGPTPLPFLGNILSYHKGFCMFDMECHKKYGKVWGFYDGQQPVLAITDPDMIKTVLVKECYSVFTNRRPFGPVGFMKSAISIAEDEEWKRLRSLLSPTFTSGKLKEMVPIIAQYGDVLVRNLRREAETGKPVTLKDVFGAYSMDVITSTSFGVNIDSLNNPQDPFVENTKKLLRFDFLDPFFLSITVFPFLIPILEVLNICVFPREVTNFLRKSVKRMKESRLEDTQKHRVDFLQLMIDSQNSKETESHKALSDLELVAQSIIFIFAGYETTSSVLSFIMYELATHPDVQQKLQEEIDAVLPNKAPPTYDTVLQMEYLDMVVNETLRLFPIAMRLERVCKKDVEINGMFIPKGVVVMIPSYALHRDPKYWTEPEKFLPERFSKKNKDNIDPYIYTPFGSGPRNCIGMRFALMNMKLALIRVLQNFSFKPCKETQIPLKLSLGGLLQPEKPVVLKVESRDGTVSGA
T3 sequence (P11712 whole entry): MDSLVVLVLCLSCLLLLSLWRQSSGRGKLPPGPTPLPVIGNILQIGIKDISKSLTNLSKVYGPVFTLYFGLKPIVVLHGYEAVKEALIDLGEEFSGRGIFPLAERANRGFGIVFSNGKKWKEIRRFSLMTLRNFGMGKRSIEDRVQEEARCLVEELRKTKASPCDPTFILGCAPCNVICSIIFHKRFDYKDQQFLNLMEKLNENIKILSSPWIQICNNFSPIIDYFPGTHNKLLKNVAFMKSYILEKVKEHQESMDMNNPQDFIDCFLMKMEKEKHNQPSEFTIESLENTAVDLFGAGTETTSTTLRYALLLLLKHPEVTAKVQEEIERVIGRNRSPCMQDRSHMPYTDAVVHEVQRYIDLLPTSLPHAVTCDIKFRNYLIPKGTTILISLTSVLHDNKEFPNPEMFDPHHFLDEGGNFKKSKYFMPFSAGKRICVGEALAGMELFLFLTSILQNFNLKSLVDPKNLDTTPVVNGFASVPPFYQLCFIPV
T2 sequence (O39929 1658-1711): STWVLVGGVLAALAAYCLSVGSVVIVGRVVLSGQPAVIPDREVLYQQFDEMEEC
T2 sequence (O39929 1027-1657): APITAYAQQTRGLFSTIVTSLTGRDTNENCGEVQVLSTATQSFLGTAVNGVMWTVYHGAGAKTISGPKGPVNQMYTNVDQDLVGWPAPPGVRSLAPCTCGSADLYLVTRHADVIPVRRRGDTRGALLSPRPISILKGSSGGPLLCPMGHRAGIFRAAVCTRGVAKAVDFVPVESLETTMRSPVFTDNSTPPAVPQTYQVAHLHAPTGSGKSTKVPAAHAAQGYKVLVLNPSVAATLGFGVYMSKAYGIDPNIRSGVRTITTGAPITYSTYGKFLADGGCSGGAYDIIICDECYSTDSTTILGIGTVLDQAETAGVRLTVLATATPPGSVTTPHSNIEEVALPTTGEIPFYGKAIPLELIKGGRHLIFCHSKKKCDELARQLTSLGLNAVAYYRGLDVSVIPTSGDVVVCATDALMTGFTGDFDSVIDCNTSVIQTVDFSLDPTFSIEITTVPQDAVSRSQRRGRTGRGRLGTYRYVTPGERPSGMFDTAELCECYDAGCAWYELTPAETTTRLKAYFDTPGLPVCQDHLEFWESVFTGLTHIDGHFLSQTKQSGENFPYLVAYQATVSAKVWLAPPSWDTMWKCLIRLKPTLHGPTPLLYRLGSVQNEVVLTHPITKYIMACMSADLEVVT

COc1ccc2c(O[C@H]3CCN4C(=O)N(C)CCCC/C=C\[C@@H]5C[C@@]5(C(=O)NS(=O)(=O)C5(C)CC5)NC(=O)[C@@H]4C3)cc(-c3nc(C(F)(F)F)cs3)nc2c1C [Compound 52, 1-methyl-cyclopropanesulfonic acid{(Z)-(1S,4R,6S,18S)-18-[7-methoxy-8-methyl-2-(4-trifluoromethyl-thiazol-2-yl)-quinolin-4-yloxy]-13-methyl-2,14-dioxo-3,13,15-triaza-tricyclo[13.4.0.0*4,6*]nonadec-7-ene-4-carbonyl}amide]
CC50 at 5 days [1]: 25.2 ± 5.3 µM | IC50 [2]: ≥ 10 µM | IC50 [3]: 0.00081 ± 3e-05 µM | C24 hr ([4]; PK Day 1): 117 ± 53 ng/mL | C24 hr ([4]; PK Day 2): 165 ± 87 ng/mL | C24 hr ([4]; PK Day 3): 197 ± 112 ng/mL | Selectivity Index [5]: 50,400 | EC50 ([5]; Hepatitis C virus, 72 h, three days, luciferase assay): 0.0005 ± 0.0001 µM | IC50 [6]: ≥ 10 µM | colonies remained on average ([7]; 14-day treatment with 10 nM, then cultured with G418 for 21 days): 6 colonies | mean maximal RNA reduction ([7]; replicon RNA, after 10 days of treatment with 10 nM, without G418): 3.7 log10 | Fold-Change [8]: 900 ± 64 | effects on the cardiovascular and respiratory systems [9]: no effects | CC50 at 5 days [10]: 11.3 ± 0.1 µM
